Results taken from PubChem BioAssay (NCI).
“And” between values parts separate entries of the source, which are not always exact repeats. Equal entries are not always repeated.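 A five-concentration, 48-hour dose response in 96-well plates underlies each endpoint, interpolated linearly between surrounding concentrations. GI50 = concentration required for 50% inhibition of growth. TGI marks complete inhibition of growth.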

Experiments:
Assay in all cases: NCI anticancer screen, dose series, 48 h
K-562 leukemia = system: K-562 leukemia
U251 CNS = system: U251 CNS
HOP-62 NSCLC = system: HOP-62 NSCLC
EKVX NSCLC = system: EKVX NSCLC
SK-MEL-5 melanoma = system: SK-MEL-5 melanoma
HT29 colon = system: HT29 colon
RPMI-8226 leukemia = system: RPMI-8226 leukemia
SF-539 CNS = system: SF-539 CNS
786-0 renal = system: 786-0 renal
M14 melanoma = system: M14 melanoma

| SMILES | TGI (K-562 leukemia) | TGI (U251 CNS) | TGI (HOP-62 NSCLC) | TGI (EKVX NSCLC) | TGI (SK-MEL-5 melanoma) | TGI (HT29 colon) | TGI (RPMI-8226 leukemia) | TGI (SF-539 CNS) | TGI (786-0 renal) | TGI (M14 melanoma) | GI50 (K-562 leukemia) | GI50 (U251 CNS) | GI50 (RPMI-8226 leukemia) | GI50 (786-0 renal) | GI50 (HOP-62 NSCLC) | GI50 (EKVX NSCLC) | GI50 (SK-MEL-5 melanoma) | GI50 (HT29 colon) | GI50 (SF-539 CNS) | GI50 (M14 melanoma) |
| --- | --- | --- | --- | --- | --- | --- | --- | --- | --- | --- | --- | --- | --- | --- | --- | --- | --- | --- | --- | --- |
| CN1CCN(CCSC2Cc3cc(Cl)ccc3Sc3ccccc32)CC1 (centres undefined) | 4.9 µM | 19.1 µM | 26.7 µM | 29.2 µM | 7.88 µM | 3.45 µM | 5.34 µM | 11.7 µM | 9.11 µM | 3.66 µM |  |  |  |  |  |  |  |  |  |  |
| COc1cc(C2c3cc4c(cc3[C@@H](Nc3ccc(C(=O)O)cc3)C3COC(=O)[C@H]23)OCO4)cc(OC)c1O (some centres undefined) | > 100 µM | 53 µM and > 17.5 µM | 33.9 µM and > 17.5 µM | > 100 µM | 38.3 µM and > 17.5 µM | 64.8 µM and > 17.5 µM | 30.2 µM and 6.54 µM | 32.7 µM and > 17.5 µM | 35 µM and > 17.5 µM | 59.9 µM and > 17.5 µM | 14.5 µM and 6.68 µM | 12.6 µM and 6.13 µM | 5.7 µM and 2.71 µM | 12.3 µM and 3.07 µM |  |  |  |  |  |  |
| CC(=O)CC1CCC(=O)CCC(=O)OC(CC(C)=O)CCC(=O)CCC(=O)O1 (centres undefined) | > 100 µM | > 100 µM | > 100 µM | > 100 µM | > 100 µM | > 100 µM | > 100 µM | > 100 µM | > 100 µM | > 100 µM |  |  |  |  |  |  |  |  |  |  |
| CC(C)c1ccc(Cc2cnc(NC(=O)c3cc(Br)cs3)s2)cc1 | > 100 µM | > 100 µM | 29.2 µM | > 100 µM | > 100 µM | > 100 µM | > 100 µM | 5.64 µM | > 100 µM | > 100 µM | 0.436 µM | 3.42 µM | 3.6 µM | 4.55 µM | 3.05 µM | 4 µM | 1.9 µM | 4.5 µM | 2.04 µM | 2.44 µM |
| O=c1oc2ccccc2c(O)c1/C=N\c1nc(-c2ccccc2)cs1 | > 100 µM | 24.9 µM | 64.4 µM | 42.6 µM | 9.65 µM | 32 µM | 39.5 µM | 6.39 µM | 40.2 µM | 16.2 µM |  |  |  |  |  |  |  |  |  |  |
| O=C(Nc1ccc(Cl)cc1)Nc1ccc(Cl)c(Cl)c1 | > 100 µM | > 100 µM | > 100 µM | > 100 µM | 3.42 µM | > 100 µM | 4.73 µM | 60.4 µM | > 100 µM | > 100 µM | 2.63 µM | 3.52 µM | 1.61 µM | 4.43 µM | 4.7 µM | 3.41 µM | 1.72 µM | 3.76 µM | 2.96 µM | 4.71 µM |
| CC#CC(O)(C(=O)OC1CCCN(C)C1)C1=CC=CCC1 (centres undefined) | > 100 µM | > 100 µM | > 100 µM | > 100 µM | > 100 µM | > 100 µM | > 100 µM | > 100 µM | > 100 µM | > 100 µM |  |  |  |  |  |  |  |  |  |  |
| CCOC(=O)C(C)(C)Oc1ccc2c(=O)cc(-c3ccc(Cl)cc3)oc2c1 | > 100 µM | > 100 µM | > 100 µM | > 100 µM | > 100 µM | > 100 µM | > 100 µM | > 100 µM | > 100 µM | > 100 µM |  |  |  |  |  |  |  |  |  |  |
| NC(=O)c1c[se]c(C2OC(CO)C(O)C2O)n1 (centres undefined) | > 100 µM | > 100 µM | > 100 µM | > 100 µM | > 100 µM | > 100 µM | > 100 µM | > 71.8 µM | > 100 µM | > 100 µM |  |  |  |  |  |  |  |  |  |  |
